Results published in patent publication US20120230991A1, “METHODS AND COMPOUNDS FOR ENHANCING ANTI-CANCER THERAPY” (priority 2008, published 2012).
Each block holds one compound with its values, some of them ahead of it.

Columns and labels:
G12 astrocytoma cells = experiment: MTT assay, chemosensitivity of G12 astrocytoma control and knockdown cells; assay type: cell-based; conditions: 48 h, MTT
Procedure: (§1) G12 control (shControl) and knockdown cells (shMer1 and shMer4; shAxl8 and shAxl9) were plated in 96-well plates at concentrations determined to allow linear growth over 3 days: A) cells were treated with varying concentrations of temozolomide and relative cell number was assessed 48 h after treatment by colorimetric assessment/MTT assay. Error bars denote experiments performed in triplicate. A172 control (shControl) and knockdown cells (shMer1A and shMer1B; shAxl8 and shAxl9) were plated in 96-well plates at concentrations determined to allow linear growth over 3 days: B) cells were treated with varying concentrations of carboplatin and relative cell number was assessed 48 h after treatment by colorimetric assessment/MTT assay. Error bars represent three independent experiments performed in triplicate.
(§2) Table 4 provides the IC50 with 95% CI for G12 and A172 control and Mer and Axl knockdown cells, in response to chemotherapy. In Table 4, ‘NR’ indicates an IC50 was never reached. ‘IND’ represents that that CI was indeterminate. The IC50 for each knockdown line was compared to the control line, and an ‘*’ represents that the comparison is statistically different while an ‘NS’ represents that there was no statistically significant difference because either the CI was indeterminate (as with the G12 shAxl9 line treated with carboplatin) or it overlapped with the shControl CI.

A172 glioblastoma cells = experiment: MTT assay, chemosensitivity of A172 control and knockdown cells; assay type: cell-based; conditions: Homo sapiens, A 172, 48 h, MTT
Procedure: as §1, §2

[1] = system: A549 Human NSCLC Cell Lines; experiment: Relative cell numbers of A549 cells (wild type, shControl, Axl/Mer knockdown) after 48 hours of drug; assay type: cell-based; conditions: for IC50: 48 hours, relative cell number; for sensitivity of the shAxl9-D3 Axl knockdown clone: A549 shAxl9-D3, 48 hours
[2] = system: A549 Human NSCLC Cell Lines; experiment: BrdU incorporation ELISA, relative cell proliferation of A549 cells, 48 hours; assay type: cell-based; conditions: for IC50: BrdU assay
Procedure: The relative cell proliferation was determined via a BrdU incorporation ELISA. IC50 values were determined by non-linear regression of data from at least three independent experiments performed in triplicate (see Table 3).

[3] = system: 697 Human B-ALL Cell Lines; experiment: MTT assay, chemosensitivity of 697 cells (wild type, shControl, Mer knockdown), 48 hours; assay type: cell-based
Procedure: Inhibition of Mer expression results in increased chemosensitivity in 697 cells. […] IC50 values were determined by non-linear regression of data from at least three independent experiments performed in triplicate, as shown in Table 1.

697 cells = experiment: Flow cytometry of apoptotic and dead cells (YO-PRO-1 / propidium iodide), 697 cells; assay type: cell-based, human; conditions: 697 shMer1A vs shControl, 48 hours
Procedure: Apoptotic and dead cells were identified by flow cytometric analysis of cells stained with YO-PRO®-1 and propidium iodide: A) representative flow cytometry profiles; B) mean values and standard errors derived from 3 independent experiments.
Cultures of shControl or shMer1A 697 cells were exposed to 6-MP, VP-16, or medium only for 48 hours: A) Apoptotic and dead cells were identified by flow cytometric analysis of cells stained with YO-PRO®-1 and propidium iodide: Representative flow cytometry profiles; B) the percentages of apoptotic and dead cells are indicated in lower-right and upper-right quadrants, respectively. Mean values and standard errors derived from 3 independent experiments. Results were tested for significance using two-way ANOVA and Bonferroni posttests to compare shControl and shMer1A cells at equivalent drug concentrations.

A549 cells = experiment: Induction of apoptosis / cell death in A549 knockdown cells treated with doxorubicin; assay type: cell-based, human
[4] = 697 shMer1A (Mer knockdown) cells
[5] = 697 shMer1B (Mer knockdown) cells

- IC50 (G12 astrocytoma cells; G12 shAxl8, 48 h): 6900 nM
- IC50 (G12 astrocytoma cells; G12 shAxl9, 48 h): 1800 nM
- IC50 (G12 astrocytoma cells; G12 shControl): 68600 nM
- IC50 (G12 astrocytoma cells; G12 shMer1, 48 h): 18200 nM
- IC50 (G12 astrocytoma cells; G12 shMer4, 48 h): 1000 nM
- IC50 (A172 glioblastoma cells; A172 shAxl8, 48 h): 27600 nM
- IC50 (A172 glioblastoma cells; A172 shAxl9, 48 h): 38900 nM
- IC50 (A172 glioblastoma cells; A172 shControl, 48 h): 51400 nM
- IC50 (A172 glioblastoma cells; A172 shMer1A, 48 h): 21300 nM
- IC50 (A172 glioblastoma cells; A172 shMer1B, 48 h): 7700 nM
SMILES: Cn1nnc2c(C(N)=O)ncn2c1=O [Temozolomide, temozolomide]

SMILES: N.N.[Cl][Pt][Cl] [Cispl, cisplatin]
- IC50 ([1]; A549 Wild Type): 6480 nM
- IC50 ([1]; A549 shAxl8-G5 (Axl knockdown)): 510 nM
- IC50 ([1]; A549 shAxl9-D3 (Axl knockdown)): 3400 nM
- sensitivity of the shAxl9-D3 Axl knockdown clone [1]: more sensitive
- IC50 ([1]; A549 shControl): 8560 nM
- IC50 ([1]; A549 shMer1-G8 (Mer knockdown)): 3000 nM
- IC50 ([2]; A549 Wild Type, 48 hours): 2100 nM
- IC50 ([2]; A549 shAxl8-G5, 48 hours): 2700 nM
- IC50 ([2]; A549 shAxl9-D3, 48 hours): 2300 nM
- IC50 ([2]; A549 shControl, 48 hours): 1700 nM
- IC50 ([2]; A549 shMer1-G8, 48 hours): 1000 nM

SMILES: Sc1ncnc2nc[nH]c12 [6-MP, 6-mercaptopurine]
- IC50 ([3]; 697 Wild Type cells): > 64000 nM
- IC50 ([3]; 697 shControl cells): > 64000 nM
- IC50 [3, 4]: 2860 nM
- IC50 [3, 5]: 3240 nM
- induction of apoptotic cell death with Mer knockdown (697 cells): increased induction of apoptotic cell death

- IC50 ([1]; Homo sapiens, A549, 48 h, A549 Wild Type): 34.9 nM
- IC50 ([1]; Homo sapiens, A549, 48 h, A549 shAxl8-G5 (Axl knockdown)): 2.1 nM
- IC50 ([1]; Homo sapiens, A549, 48 h, A549 shAxl9-D3 (Axl knockdown)): 13 nM
- IC50 ([1]; Homo sapiens, A549, 48 h, A549 shControl): 69.2 nM
- IC50 ([1]; Homo sapiens, A549, 48 h, A549 shMer1-G8 (Mer knockdown)): 71.2 nM
- IC50 ([2]; Homo sapiens, A549, 48 h, A549 Wild Type, 48 hours): 43.1 nM
- IC50 ([2]; Homo sapiens, A549, 48 h, A549 shAxl8-G5, 48 hours): 50 nM
- IC50 ([2]; Homo sapiens, A549, 48 h, A549 shAxl9-D3, 48 hours): 33.2 nM
- IC50 ([2]; Homo sapiens, A549, 48 h, A549 shControl, 48 hours): 51.1 nM
- IC50 ([2]; Homo sapiens, A549, 48 h, A549 shMer1-G8, 48 hours): 20.4 nM
SMILES: COc1cccc2c1C(=O)c1c(O)c3c(c(O)c1C2=O)C[C@@](O)(C(=O)CO)C[C@@H]3O[C@H]1C[C@H](N)[C@H](O)[C@H](C)O1 [DOXO, doxorubicin]
- IC50 ([3]; 697 Wild Type cells): 16.7 nM
- IC50 ([3]; 697 shControl cells): 11.1 nM
- IC50 [3, 4]: 2.83 nM
- IC50 [3, 5]: 3.26 nM
- sensitivity of the shAxl9-D3 Axl knockdown clone [1]: more sensitive
- sensitivity of A549 cells with inhibition of Mer expression ([2]; A549 Mer1-G8 knockdown, BrdU, 48 hours): increased sensitivity
- induction of apoptosis with inhibition of Axl (A549 cells; A549 Axl knockdown vs shControl): increased induction of apoptosis
- level of cell death in Mer knockdown cells (A549 cells; A549 Mer knockdown cells, treated vs untreated): did not increase the level of cell death
